≈ marks a conversion by molar mass, not a printed value. Where two headings read alike, the source gives them in different places.
Legend:
[1] = tested on: Pseudomonas eruginosa 1771; assay: MIC, in vitro agar dilution method; assay type: cell-based; details: P.a.3, Pseudomonas eruginosa 1771
Procedure: (§1) The MICs of the new cephalosporins of the present invention against Gram-positive and Gram-negative bacteria were determined by an in vitro agar dilution method. For comparisons, the MIC values of ceftazidime are also listed.
(§2) In vitro antimicrobial activity of the cephalosporins (l) (MIC:
P.a.3, Pseudomonas eruginosa 1771;

[2] = tested on: Pseudomonas aeruginosa 1592 E; assay: MIC, in vitro agar dilution method; assay type: cell-based
Procedure: as §1, §2
P.a.2, Pseudomonas aeruginosa 1592 E;

[3] = tested on: Pseudomonas aeruginosa 9027; assay: MIC, in vitro agar dilution method; assay type: cell-based
Procedure: as §1, §2
P.a.1, Pseudomonas aeruginosa 9027;

[4] = tested on: Staphylococcus aureus 503; assay: MIC, in vitro agar dilution method; assay type: cell-based
Procedure: as §1, §2
S.a.3, Staphylococcus aureus 503;

[5] = tested on: Enterobacter cloacae 1321 E; assay: MIC, in vitro agar dilution method; assay type: cell-based
Procedure: as §1, §2
En.c.2, Enterobacter cloacae 1321 E.

[6] = tested on: Streptococcus pyogenes A 77; assay: MIC, in vitro agar dilution method; assay type: cell-based; details: A77
Procedure: as §1, §2
S.p.2, Streptococcus pyogenes A 77;

[7] = tested on: Pseudomonas aeruginosa 1771 M; assay: MIC, in vitro agar dilution method; assay type: cell-based
Procedure: as §1, §2
P.a.4, Pseudomonas aeruginosa 1771 M;

Escherichia coli 1507 E = assay: MIC, in vitro agar dilution method; assay type: cell-based; details: E.c.4, Escherichia coli 1507 E
Procedure: as §1, §2
E.c.4, Escherichia coli 1507 E;

Escherichia coli DC0 = assay: MIC, in vitro agar dilution method; assay type: cell-based; details: E.c.2, Escherichia coli DC0
Procedure: as §1, §2
E.c.2, Escherichia coli DC0;

E.c.5 = assay: MIC, in vitro agar dilution method; assay type: cell-based; details: Escherichia coli, E.c.5 (strain not defined)
Procedure: as §1

[8] = tested on: Klebsiella oxytoca 1082 E; assay: MIC, in vitro agar dilution method; assay type: cell-based
Procedure: as §1, §2
K.o., Klebsiella oxytoca 1082 E;

[9] = tested on: Staphylococcus aureus 285; assay: MIC, in vitro agar dilution method; assay type: cell-based
Procedure: as §1, §2
E.c. TEM, S.a. 2, Staphylococcus aureus 285;

[10] = tested on: Streptococcus pyogenes 308 A; assay: MIC, in vitro agar dilution method; assay type: cell-based
Procedure: as §1, §2
S.p.1, Streptococcus pyogenes 308 A;

[11] = tested on: Klebsiella aerogenes 1552 E; assay: MIC, in vitro agar dilution method; assay type: cell-based
Procedure: as §1, §2
K.a., Klebsiella aerogenes 1552 E;

Escherichia coli O55 = assay: MIC, in vitro agar dilution method; assay type: cell-based; details: E.c.1, Escherichia coli O55
Procedure: as §1, §2
E.c.1, Escherichia coli O55;

[12] = tested on: Staphlococcus aureus SG 511; assay: MIC, in vitro agar dilution method; assay type: cell-based
Procedure: as §1, §2
S.a.1, Staphlococcus aureus SG 511;

Streptococcus faecium MD = assay: MIC, in vitro agar dilution method; assay type: cell-based; details: Enterococcus faecium
Procedure: as §1, §2
S.f., Streptococcus faecium MD;

[13] = tested on: Enterobacter cloacae P 99; assay: MIC, in vitro agar dilution method; assay type: cell-based; details: for MIC: Enterobacter cloacae, P99
Procedure: as §1, §2
En.c.1, Enterobacter cloacae P 99;

Salmonella typhimurium = assay: MIC, in vitro agar dilution method; assay type: cell-based; details: Salmonella enterica
Procedure: as §1, §2
S.t., Salmonella typhimurium;

Escherichia coli TEM = assay: MIC, in vitro agar dilution method; assay type: cell-based; details: E.c.3, Escherichia coli TEM
Procedure: as §1, §2
E.c.3, Escherichia coli TEM;

staphylococci = details: in words, prior art; cited from earlier work
anti-pseudomonal = details: in words, prior art; cited from earlier work
Enterobacter cloacae P99 = details: in words, prior art; cited from earlier work
[14] = P.a.2, Pseudomonas aeruginosa 1592 E, agar dilution, read-out: MIC
[15] = P.a.1, Pseudomonas aeruginosa 9027, agar dilution, read-out: MIC
[16] = S.a.3, Staphylococcus aureus 503, agar dilution, read-out: MIC
[17] = En.c.2, Enterobacter cloacae 1321 E, agar dilution, read-out: MIC
[18] = S.p.2, Streptococcus pyogenes A 77, agar dilution, read-out: MIC
[19] = P.a.4, Pseudomonas aeruginosa 1771 M, agar dilution, read-out: MIC
[20] = K.o., Klebsiella oxytoca 1082 E, agar dilution, read-out: MIC
[21] = S.a.2, Staphylococcus aureus 285, agar dilution, read-out: MIC
[22] = S.p.1, Streptococcus pyogenes 308 A, agar dilution, read-out: MIC
[23] = K.a., Klebsiella aerogenes 1552 E, agar dilution, read-out: MIC
[24] = S.a.1, Staphlococcus aureus SG 511, agar dilution, read-out: MIC
[25] = S.f., Streptococcus faecium MD, agar dilution, read-out: MIC
[26] = S.t., Salmonella typhimurium, agar dilution, read-out: MIC

SMILES | MIC [1] [µg/mL] | MIC [2, 14] [µg/mL] | MIC [3, 15] [µg/mL] | MIC [4, 16] [µg/mL] | MIC [5, 17] [µg/mL] | MIC [6, 18] [µg/mL] | MIC [7, 19] [µg/mL] | MIC (Escherichia coli 1507 E) [µg/mL] | MIC (Escherichia coli DC0) [µg/mL] | MIC (E.c.5) [µg/mL] | MIC [8, 20] [µg/mL] | MIC [9, 21] [µg/mL] | MIC [10, 22] [µg/mL] | MIC [11, 23] [µg/mL] | MIC (Escherichia coli O55) [µg/mL] | MIC [12, 24] [µg/mL] | MIC (Streptococcus faecium MD; [25]) [µg/mL] | MIC [13] [µg/mL] | MIC (Salmonella typhimurium; [26]) [µg/mL] | MIC (Escherichia coli TEM) [µg/mL] | further results
CO/N=C(\C(=O)N[C@@H]1C(=O)N2C(C(=O)[O-])=C(/C=C/C[N+]3(C)CCC(O)CC3)CS[C@H]12)c1csc(N)n1 (stereo partly drawn) [1-g, 7β-[2-(2-Aminothiazol-4-yl)-(Z)-2-methoxyiminoacetamido]-3-[(E)-3-(4-hydroxy-1-methyl-1-piperidinio)-1-propen-1-yl]-3-cephem-4-carboxylate] | 1.56 (≈ 2.91 µM) | 3.13 (≈ 5.83 µM) | 6.25 (≈ 11.6 µM) | 0.2 (≈ 0.373 µM) | 0.025 (≈ 0.0466 µM) | 0.013 (≈ 0.0242 µM) | 0.2 (≈ 0.373 µM) | 0.098 (≈ 0.183 µM) | 0.049 (≈ 0.0913 µM) | 0.049 (≈ 0.0913 µM) | 3.13 (≈ 5.83 µM) | 0.78 (≈ 1.45 µM) | 0.013 (≈ 0.0242 µM) | 0.025 (≈ 0.0466 µM) | 0.025 (≈ 0.0466 µM) | 0.39 (≈ 0.727 µM) | 50 (≈ 93.2 µM) | 3.13 (≈ 5.83 µM) | 0.049 (≈ 0.0913 µM) | 0.049 (≈ 0.0913 µM) | 
CO/N=C(\C(=O)N[C@@H]1C(=O)N2C(C(=O)[O-])=C(/C=C/C[N+]3(C)CCCCC3CO)CS[C@H]12)c1csc(N)n1 (some centres unmarked) [1-h] | 1.56 (≈ 2.83 µM) | 3.13 (≈ 5.68 µM) | 6.25 (≈ 11.3 µM) | 0.2 (≈ 0.363 µM) | 0.013 (≈ 0.0236 µM) | 0.007 (≈ 0.0127 µM) | 0.098 (≈ 0.178 µM) | 0.049 (≈ 0.089 µM) | 0.049 (≈ 0.089 µM) | 0.049 (≈ 0.089 µM) | 1.56 (≈ 2.83 µM) | 0.39 (≈ 0.708 µM) | 0.013 (≈ 0.0236 µM) | 0.025 (≈ 0.0454 µM) | 0.013 (≈ 0.0236 µM) | 0.39 (≈ 0.708 µM) | 25 (≈ 45.4 µM) | 3.13 (≈ 5.68 µM) | 0.025 (≈ 0.0454 µM) | 0.025 (≈ 0.0454 µM) | 
CON=C(C(=O)NC1C(=O)N2C(C(=O)[O-])=C(C=CC[N+]3(C)C4CCC3CC(O)C4)CSC12)c1csc(N)n1 (stereo not drawn) [1-i, 7β-[2-(2-Aminothiazol-4-yl)-(Z)-2-methoxyiminoacetamido]-3-[(E)-3-tropinio-1-propen-1-yl]-3-cephem-4-carboxylate] | 1.56 (≈ 2.77 µM) | 3.13 (≈ 5.56 µM) | 6.25 (≈ 11.1 µM) | 0.2 (≈ 0.355 µM) | 0.025 (≈ 0.0444 µM) | 0.013 (≈ 0.0231 µM) | 0.2 (≈ 0.355 µM) | 0.098 (≈ 0.174 µM) | 0.049 (≈ 0.0871 µM) | 0.049 (≈ 0.0871 µM) | 1.56 (≈ 2.77 µM) | 0.78 (≈ 1.39 µM) | 0.013 (≈ 0.0231 µM) | 0.025 (≈ 0.0444 µM) | 0.025 (≈ 0.0444 µM) | 0.39 (≈ 0.693 µM) | 50 (≈ 88.9 µM) | 6.25 (≈ 11.1 µM) | 0.049 (≈ 0.0871 µM) | 0.025 (≈ 0.0444 µM) | 
CO/N=C(\C(=O)N[C@@H]1C(=O)N2C(C(=O)[O-])=C(C[N+]3(C)CCCC3)CS[C@H]12)c1csc(N)n1 [Cefepime, cefepime] |  |  |  |  |  |  |  |  |  |  |  |  |  |  |  |  |  |  |  |  | activity against staphylococci (staphylococci): improved anti-staphylococcaI activity; anti-pseudomonal activity (anti-pseudomonal): high anti-pseudomonal activity
CC(C)(O/N=C(\C(=O)N[C@@H]1C(=O)N2C(C(=O)[O-])=C(C[n+]3ccccc3)CS[C@H]12)c1csc(N)n1)C(=O)O [Ceftazidime, ceftazidime, reference compound] | 0.39 (≈ 0.714 µM) |  |  |  |  |  |  | 0.2 (≈ 0.366 µM) | 0.098 (≈ 0.179 µM) | 0.2 (≈ 0.366 µM) |  |  |  |  | 0.098 (≈ 0.179 µM) |  |  | 100 (≈ 183 µM) |  | 0.098 (≈ 0.179 µM) | MIC ([2]; Pseudomonas aeruginosa, 1592E): 0.78 µg/mL (≈ 1.43 µM); MIC ([3]; Pseudomonas aeruginosa, 9027): 3.13 µg/mL (≈ 5.73 µM); MIC ([4]; Staphylococcus aureus, 503): 3.13 µg/mL (≈ 5.73 µM); MIC ([5]; Enterobacter cloacae, 1321E): 0.025 µg/mL (≈ 0.0457 µM); MIC ([6]; Streptococcus pyogenes): 0.049 µg/mL (≈ 0.0896 µM); activity against staphylococci (staphylococci): less active against staphylococci; MIC ([7]; Pseudomonas aeruginosa, 1771M): 0.098 µg/mL (≈ 0.179 µM); MIC ([8]; Klebsiella oxytoca, 1082E): 0.39 µg/mL (≈ 0.714 µM); MIC ([9]; Staphylococcus aureus, 285): 12.5 µg/mL (≈ 22.9 µM); anti-pseudomonal activity (anti-pseudomonal): potent anti-pseudomonal activity; MIC ([10]; Streptococcus pyogenes, 308A): 0.098 µg/mL (≈ 0.179 µM); MIC ([11]; Klebsiella aerogenes, 1552E): 0.098 µg/mL (≈ 0.179 µM); MIC [12]: 12.5 µg/mL (≈ 22.9 µM); MIC (Streptococcus faecium MD): 100 µg/mL (≈ 183 µM); activity against Enterobacter cloacae P99 ([13]; in words): resistant to ceftazidime; activity against Enterobacter cloacae P99 (Enterobacter cloacae P99): less active against staphylococci and Enterobacter cloacae P99; MIC (Salmonella typhimurium; TYPHIMURIUM): 0.2 µg/mL (≈ 0.366 µM)
